What was measured:
[1] = molecular target: T1, dopamine receptor (D2) wild type (D2Rs) (Homo sapiens, UniProt P14416); test: D2R competition binding with [3H]-spiperone on membranes of transfected CHO cells; settings: for Ki: D2Rs, competition with 180 pM [3H]-spiperone, mean ± SEM, n = 3; for IC50: Table S1, D2Rs, mean ± S.E.M. of 3 independent experiments in triplicate, read-out: IC50 in µM ± SEM
T1 construct: host or cells: CHO cells, transient PEI transfection; membranes prepared 48 h after transfection
Method: Chinese hamster ovary cells (CHO cells) were used for the binding experiments. About 24 h before transfection, CHO cells were plated on a 10 cm Petri dish at a density of 1.5 × 10^6 cells and cultivated in 10 mL DMEM/Ham’s F12 supplemented with 10% heat-inactivated fetal bovine serum (FBS).
For transfection, the desired amount of linear polyethyleneimine (PEI) 25_K (Polysciences, Eppelheim, Germany) and DNA (dopamine receptor (D2) wild type, cDNA resource centre, Bloomsberg, PA, USA) were diluted separately in phosphate buffer saline (PBS). After 20 min, DNA was added to PEI solution, mixed and left for an additional 30 min. Final concentration of reactants was 6 µg plasmid DNA and 18 µg PEI per ml. PEI/DNA complex was added (1 mL/dish) and the plates were incubated for another 24 h. Then, the medium was replaced with fresh DMEM/Ham’s F12 with 10% FBS and incubated for an additional 24 h. Cells were maintained at 37 °C in a 5% CO2-humidified atmosphere.
About 48 h after transfection, cells were washed with PBS, mechanically detached from the dish with a plastic scraper in the ice-cold PBS, and centrifuged for 3 min at 250× g. Pellet was suspended in the ice-cold homogenization medium (100 mM NaCl, 20 mM Na-HEPES, 10 mM EDTA, pH 7.4) and homogenized on ice by two 30-s strokes using Polytron homogenizer (Ultra-Turrax; Janke & Kunkel GmbH & Co. KG, IKA-Labortechnik, Staufen, Germany) with a 30-s pause between strokes. Cell homogenates were centrifuged for 5 min at 1000× g. The supernatant was collected and centrifuged for 30 min at 30,000× g. Pellets were suspended in incubation medium (100 mM NaCl, 20 mM Na-HEPES, 10 mM MgCl2, pH 7.4), left for 30 min at 4 °C and centrifuged again for 30 min at 30,000× g. The membrane pellets were kept at −80 °C until use.
All radioligand binding experiments were optimized and carried out as described by El-Fakahany and Jakubik. […] Saturation experiments were performed in 800 μL volume containing: 400 μL of the membrane suspension and 400 μL of the radioligand in six increasing concentrations (ranging from 31 to 1000 pM).
The examined compounds were diluted in incubation buffer and tested in six concentrations (ranging from 0.1 nM–1 mM). The reactions were performed in 400 µL volume containing: 100 µL of the radioligand, 100 µL of tested substances dilution, and 200 µL of the membranes.
Nonspecific binding was determined in the presence of 10 μM unlabeled sulpiride. Membrane suspensions from both saturation and binding experiments (approximately 10 μg of membrane proteins per sample) were incubated in 96-well plates for 1 h at 25 °C in the incubation medium (100 mM NaCl, 20 mM Na-HEPES,10 mM MgCl2, pH = 7.4) in a shaking incubator (25 °C; PST-60HL, Biosan, Riga, Latvia).
The binding reactions were terminated by filtration of the membranes through APFC filter plate (Millipore, Prague, Czech Republic) pre-soaked with 0.5% PEI and washed with ice-cold distilled water using a Brandel cell harvester (Brandel, Gaithersburg, MD, USA). Then, filters with labelled membranes were dried. After 24 h, scintillation cocktail (Rotiszint eco plus, Carl Roth) was added to each sample and radioactivity was quantified by liquid scintillation spectrometry using Wallac Microbeta scintillation counter (Wallac, Turku, Finland). Competition binding experiments were performed per triplicate and all experiments were performed three times. Protein concentration was determined by the Lowry method in the Peterson modification.

[2] = PAMPA assay (Polar Brain Lipid membrane); settings: for CNS (+/−): BBB permeability class predicted from PAMPA Pe; for Papp: PAMPA, pH 7.4
Method: In this study, it has been used as a non-cell-based in vitro assay carried out in a coated 96-well membrane filter. The filter membrane of the donor plate was coated with PBL (Polar Brain Lipid, Avanti, AL, USA) in dodecane (4 µL of 20 mg/mL PBL in dodecane) and the acceptor well was filled with 300 µL of PBS pH 7.4 buffer (VA tested compounds were dissolved first in the DMSO/phosphate-buffered saline mixture (maximum 0.5% v/v of DMSO) and subsequently diluted with phosphate-buffered saline (pH 7.4) to final concentrations of 40–100 μM in the donor wells). […] About 300 µL of the donor solution was added to the donor wells (VD) and the donor filter plate was carefully put on the acceptor plate so that coated membrane was “in touch” with both donor solution and acceptor buffer. Test compound diffused from the donor well through the lipid membrane (Area = 0.28 cm^2) to the acceptor well. The concentration of the drug in both donor and the acceptor wells were assessed after 3, 4, 5, and 6 h of incubation in quadruplicate using the UV plate reader Synergy HT (Biotek, Winooski, VT, USA) at the maximum absorption wavelength of each compound. Besides that, solution of theoretical compound concentration, simulating the equilibrium state established if the membrane were ideally permeable was prepared and assessed as well. Concentration of the compounds in the donor and acceptor well and equilibrium concentration were calculated from the standard curve and expressed as the permeability (Pe) according to the equation:(4) Pe=C×ln(1−[drug] acceptor/[drug] equilibrium) where C=(VD×VA)/(VD×VA) Area×Time

[3] = test system: CHO-K1 cells; test: MTT assay on CHO-K1 cells; type: cell-based, Chinese hamster; settings: Cricetulus griseus, cell viability, 24 h exposure, mean ± SEM, n = 3
Method: Standard MTT (3-[4,5-dimethylthiazol-2-yl]-2,5-diphenyltetrazolium bromide) assay (Sigma Aldrich, Prague, Czech Republic) was used according to the manufacturer´s protocol on the CHO-K1 (Chinese hamster ovary, ECACC, Salisbury, UK) in order to compare the effect of different compounds within the series. The cells were cultured according to ECACC recommended conditions and seeded in a density of 8000 per well as described previously. […] Cells were exposed to a tested compound for 24 h. Then the medium was replaced by a medium containing 10 μM of MTT and cells were allowed to produce formazan for another approximately 3 h under surveillance. Thereafter, medium with MTT was sucked out and crystals of formazan were dissolved in DMSO (100 µL). Cell viability was assessed spectrophotometrically by the amount of formazan produced. Absorbance was measured at 570 nm with 650 nm reference wavelength on Synergy HT (BioTek, Winooski, VT, USA). IC50 was then calculated from the control-subtracted triplicates using non-linear regression (four parameters) of GraphPad Prism 9 software. Final IC50 and SEM values were obtained as a mean of three independent measurements.

[4] = molecular target: D2Rs; settings: Figure 1; cited from earlier work
[5] = molecular target: D3Rs; settings: Figure 1; cited from earlier work

T1 sequence (P14416 whole entry): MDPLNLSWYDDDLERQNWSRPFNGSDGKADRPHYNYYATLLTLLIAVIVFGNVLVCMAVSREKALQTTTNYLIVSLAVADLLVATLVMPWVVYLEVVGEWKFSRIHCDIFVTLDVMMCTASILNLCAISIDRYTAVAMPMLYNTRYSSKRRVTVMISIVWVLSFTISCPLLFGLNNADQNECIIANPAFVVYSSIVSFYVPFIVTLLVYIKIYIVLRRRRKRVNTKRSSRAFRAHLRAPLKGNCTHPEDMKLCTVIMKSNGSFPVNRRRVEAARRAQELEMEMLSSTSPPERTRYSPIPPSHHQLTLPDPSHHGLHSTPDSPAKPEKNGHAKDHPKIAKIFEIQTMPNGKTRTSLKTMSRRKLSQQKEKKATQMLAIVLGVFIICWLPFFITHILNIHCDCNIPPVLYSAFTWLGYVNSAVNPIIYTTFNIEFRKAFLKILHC

SMILES	Ki [1] [µM]	IC50 [1] [µM]	CNS (+/−) [2]	Papp [2] [×10⁻⁶ cm/s]	IC50 [3] [mM]	Ki [4] [µM]	pKi for D3Rs [5]	pKi for D2Rs [4]
COCCN(C)CCCCN1C(=O)CCc2ccccc21 [6g, 1-(4-((2-Methoxyethyl)(methyl)amino)butyl)-3,4-dihydroquinolin-2(1H)-one]	45 ± 11	188 ± 38	CNS + (CNS + (high BBB permeability predicted), Pe (10^−6 cm∙s^−1) > 4.0)	9.5 ± 1.1	2.1 ± 0.8	–	–	–
O=C1CCc2ccccc2N1CCCCN1CCCCC1 [6b, 1-(4-(Piperidin-1-yl)butyl)-3,4-dihydroquinolin-2(1H)-one]	14 ± 2.5	57 ± 10	CNS + (CNS + (high BBB permeability predicted), Pe (10^−6 cm∙s^−1) > 4.0)	10 ± 1.4	0.8 ± 0.2	–	–	–
CCc1cc(Cl)c(OC)c(C(=O)NC[C@@H]2CCCN2CC)c1O [eticlopride]	–	–	–	–	–	0.0001	–	–
CNC(=C[N+](=O)[O-])NCCSCc1ccc(CN(C)C)o1 [Ranitidine, reference compound]	–	–	CNS − (CNS − (low BBB permeability predicted), Pe (10^−6 cm∙s^−1) < 2.0)	0.4 ± 0.3	–	–	–	–
O=C1CCc2ccccc2N1CCCN1CCCC1 [5a, 1-(3-(Pyrrolidin-1-yl)propyl)-3,4-dihydroquinolin-2(1H)-one]	24 ± 5.8	98 ± 23	CNS + (CNS + (high BBB permeability predicted), Pe (10^−6 cm∙s^−1) > 4.0)	7.3 ± 0.8	2 ± 0.8	–	–	–
O=C1CCc2ccccc2N1CCCN1CCCCC1 [5b, 1-(3-(Piperidin-1-yl)propyl)-3,4-dihydroquinolin-2(1H)-one]	9.7 ± 1.6	39 ± 6.4	CNS + (CNS + (high BBB permeability predicted), Pe (10^−6 cm∙s^−1) > 4.0)	13 ± 0.1	1.5 ± 0.3	–	–	–
O=C1CCc2ccccc2N1CCCCN1CCSCC1 [6e, 1-(4-Thiomorpholinobutyl)-3,4-dihydroquinolin-2(1H)-one]	9.7 ± 2.3	40 ± 8.2	CNS + (CNS + (high BBB permeability predicted), Pe (10^−6 cm∙s^−1) > 4.0)	23 ± 3.3	0.8 ± 0.1	–	–	–
COCCN(C)CCCN1C(=O)CCc2ccccc21 [5g, 1-(3-((2-Methoxyethyl)(methyl)amino)propyl)-3,4-dihydroquinolin-2(1H)-one]	26 ± 6.1	106 ± 24	CNS + (CNS + (high BBB permeability predicted), Pe (10^−6 cm∙s^−1) > 4.0)	10 ± 1.6	1.5 ± 0.5	–	–	–
CN1CCN(CCCN2C(=O)CCc3ccccc32)CC1 [5c, 1-(3-(4-Methylpiperazin-1-yl)propyl)-3,4-dihydroquinolin-2(1H)-one]	12 ± 3.2	49 ± 13	CNS + (CNS + (high BBB permeability predicted), Pe (10^−6 cm∙s^−1) > 4.0)	7 ± 0.4	2 ± 1	–	–	–
NS(=O)(=O)c1cc2c(cc1Cl)N=CNS2(=O)=O [Chlorothiazide, reference compound]	–	–	–	1.2 ± 0.5	–	–	–	–
O=C1CCc2ccccc2N1CCCN1CCSCC1 [5e, 1-(3-Thiomorpholinopropyl)-3,4-dihydroquinolin-2(1H)-one]	7.6 ± 1.9	30 ± 7.7	CNS + (CNS + (high BBB permeability predicted), Pe (10^−6 cm∙s^−1) > 4.0)	24 ± 2.1	0.5 ± 0.1	–	–	–
CCN(CC)CCCCN1C(=O)CCc2ccccc21 [6f, 1-(4-(Diethylamino)butyl)-3,4-dihydroquinolin-2(1H)-one]	27 ± 4.7	103 ± 19	CNS + (CNS + (high BBB permeability predicted), Pe (10^−6 cm∙s^−1) > 4.0)	7.4 ± 0.9	1.8 ± 0.3	–	–	–
O=C1CCc2ccccc2N1CCCN1CCOCC1 [5d, 1-(3-Morpholinopropyl)-3,4-dihydroquinolin-2(1H)-one]	20 ± 1.6	80 ± 6.3	CNS + (CNS + (high BBB permeability predicted), Pe (10^−6 cm∙s^−1) > 4.0)	12 ± 2	1.1 ± 0.3	–	–	–
COc1ccccc1N1CCN(CCCN2C(=O)CCc3ccccc32)CC1 [USC-D301]	–	–	–	–	–	–	6.4	7.8
O=C1CCc2ccccc2N1CCCCN1CCOCC1 [6d, 1-(4-Morpholinobutyl)-3,4-dihydroquinolin-2(1H)-one]	41 ± 14	166 ± 56	CNS + (CNS + (high BBB permeability predicted), Pe (10^−6 cm∙s^−1) > 4.0)	17 ± 2.1	1.3 ± 0.2	–	–	–
CCN(CC)CCCN1C(=O)CCc2ccccc21 [5f, 1-(3-(Diethylamino)propyl)-3,4-dihydroquinolin-2(1H)-one]	37 ± 8.6	150 ± 34	CNS + (CNS + (high BBB permeability predicted), Pe (10^−6 cm∙s^−1) > 4.0)	9.4 ± 0.4	0.9 ± 0.2	–	–	–
O=C1CCc2ccccc2N1CCCCN1CCCC1 [6a, 1-(4-(Pyrrolidin-1-yl)butyl)-3,4-dihydroquinolin-2(1H)-one]	23 ± 3.6	93 ± 14	CNS + (CNS + (high BBB permeability predicted), Pe (10^−6 cm∙s^−1) > 4.0)	7.7 ± 1.8	1.1 ± 0.2	–	–	–
CN1CCN(CCCCN2C(=O)CCc3ccccc32)CC1 [6c, 1-(4-(4-Methylpiperazin-1-yl)butyl)-3,4-dihydroquinolin-2(1H)-one]	21 ± 0.6	82 ± 2.3	CNS + (CNS + (high BBB permeability predicted), Pe (10^−6 cm∙s^−1) > 4.0)	7.1 ± 1.2	1.2 ± 0.2	–	–	–
